Reference: patent US4117139A, “Medicated compound for treating allergic diseases” (priority 1973, dated 1978)
Counter-ions that a name gives are not always drawn.

How the values were obtained:
[1] = Acute toxicity in rats; settings: rat, in vivo, po, in the stomach
[2] = system: general state and behaviour of animals; assay: General state and behaviour after single medication; type: in vivo, mice, rats, guinea pigs, cats and dogs; settings: different modes, versus dimedrol and diprasine
[3] = system: central nervous system; assay: Central nervous system effects in test animals; type: in vivo; settings: mice, rats, rabbits, cats; different modes of administration
[4] = Repeated administration to rats; type: in vivo
[5] = system: anaphylactic response caused by ovalbumin; assay: Anaphylactic response to ovalbumin aerosol in actively sensibilized guinea pigs; settings: 25 mg/kg intraperitoneally and 50 mg/kg in stomach; 25% ovalbumin aerosol, 10 minutes
[6] = system: bronchospasm caused by serotonine (5-hydroxytriptamine); assay: Bronchospasm caused by serotonine; settings: in vivo
[7] = system: central nervous system; assay: Depressive effect on the central nervous system; settings: in vivo
Text: The majority of modern anti-histamine medicines reveal a strong sedative effect, whereby their administration is substantially limited in the ambulatory treatment, especially in the case of persons engaged in intellectual pursuits, or persons whose occupation requires quick physical and psychic responses, e.g. drivers of transport vehicles.

[8] = Acute toxicity in mice; settings: mouse, in vivo
[9] = system: bronchospasm caused by acetylcholine; assay: Bronchospasm caused by acetylcholine; settings: in vivo
[10] = system: bronchial asthma; assay: Clinical test: bronchial asthma; type: in vivo; settings: patients
Text: (§1) The medicated compound of the present invention was clinically tested on 250 patients aging from 18 to 70 years suffering from allergic diseases for a period of from 3 months to 10 years, and treated with various anti-histamine medicines.
(§2) The medicated compound of the present invention was used for the treatment of acute and chronic urticaria, hay fever, Quincke's oedema, dermal itch, chronic eczema, polysyndromic phenomena of intolerance (arthropathy, eosinophilia, temperature increase), dermatoblepharoconjunctivitis, and bronchial-asthma.

[11] = system: foot edema caused by formalin; assay: Rat foot edema caused by subplantar formalin; type: in vivo, rats; settings: 25 mg/kg intraperitoneally and 50 mg/kg in the stomach; formalin 0.2 ml of 2% solution; P over 0.05
Text: (§3) The medicated compound of the present invention irrespectively of the medication mode exerts anti-edemic antianaphylactic action.

[12] = system: hypotensive activity of intravenously injected histamine; assay: Hypotensive activity of intravenous histamine in narcotized cats; type: in vivo; settings: 0.2 to 0.5 mg/kg, histamine 1 mcg/kg i.v.
[13] = system: ophthalmic response (hyperemia and chemosis) caused by histamine; assay: Ophthalmic response to histamine instilled into conjunctival sac of guinea pigs; type: in vivo
[14] = Acute toxicity in guinea pigs; type: in vivo
[15] = system: allergic diseases; assay: Clinical test on patients suffering from allergic diseases; type: in vivo
Text: as §1
The treatment with the medicated compound of the present invention was effected in allergological surgeries under ambulatory and stationary conditions.
The majority of the stationary patients were hospitalized with serious, or lasting allergic responses and frequently with accompanying diseases of the heart-vascular system, and digestive tract.
as §2
(§4) In the case of dermatoblepharonconjunctivitis and some other allergic ophthalmic diseases, the medicated compound of the present invention was administered per os (one tablet of 0.025 g 3 to 4 times per day).
The medicated compound of the present invention was used individually (without an additional desensibilizing therapy) per os in a dose of from 3 to 6 tablets (0.025 g each) per day, usually directed after eating.

[16] = system: dermatoblepharonconjunctivitis and some other allergic ophthalmic diseases; assay: Clinical test: dermatoblepharoconjunctivitis and other allergic ophthalmic diseases; type: in vivo, patients
Description: as §1, §4

[17] = system: intoxication caused by histamine aerosol; assay: Histamine aerosol intoxication in guinea pigs; type: in vivo; settings: in the stomach, 30 to 50 mg/kg, spraying 300 seconds
[18] = system: bronchoconstricting action of histamine; assay: Histamine bronchoconstriction in narcotized guinea pigs (Concette-Rossler method); type: in vivo; settings: intravenous, 0.1 to 0.2 mg/kg
Text: As to the mechanism of its action, the medicated compound of the present invention represents an antagonist to histamine liberated in antigen-antibody reactions.

[19] = Clinical tolerability; type: in vivo, patients
Text: as §1
However, with the patients over 60 years of age, or those weakened by accompanying serious diseases, some cases of a "seductive" effect of the medicated compound of the present invention were noticed.

[20] = Embryotoxicity / teratogenicity in pregnant rats; type: in vivo; settings: per os, single doses 3/4 of LD50, various periods of pregnancy
[21] = system: heart-vascular system, digestive tract, and excretory organs; assay: Pharmacological and toxicological studies: heart-vascular system, digestive tract, excretory organs; settings: in vivo
[22] = system: foot edema caused by dextrane; assay: Rat foot edema caused by subplantar dextrane; type: in vivo, rats; settings: 25 mg/kg intraperitoneally and 50 mg/kg in the stomach; dextrane 0.1 ml of 6% solution; P over 0.05
Text: as §3

[23] = system: chronic aseptic inflammation; assay: Chronic aseptic inflammation by hypodermical implantation of wool balls to rats; type: in vivo; settings: hypodermically, 25 mg/kg
[24] = system: foot edema caused by serotonin; assay: Rat foot edema caused by subplantar serotonin; type: in vivo, rats
Text: as §3

[25] = Acute toxicity, diprasine, intravenous; settings: intravenously
[26] = rats, in the stomach, 22 times, 1/4 of LD50

Structure (SMILES): OC(c1ccccc1)(c1ccccc1)C1CN2CCC1CC2 (centres unmarked) [(quinuclidyl-3)-diphenylcarbinol hydrochloride]
- LD50 [1]: 440 mg/kg
- influence on general state and behaviour of animals [2]: to a considerably lesser extent than dimedrol (diphenhydramine) and especially diprasine (promethasine)
- action of various hypnotics [3]: does not extend the action of various hypnotics
- influence on latent period of conditioned reflexes [3]: nor has it any influence
- influence on spontaneous motor activity [3]: no influence
- influence on summation ability of the central nervous system [3]: no influence
- influence on general state and behaviour, peripheral blood, biochemical characteristics of blood and urina [4, 26]: no essential influence
- pathomorphological changes in internal organs [4, 26]: no pathomorphological changes in internal organs
- tolerance of repeated administration ([4]; relatively high doses): well tolerated by the test animals
- antiallergic effect [5]: clearly pronounced antiallergic effect
- signs of anaphylactic response / latent period [5]: increasing the latent period, or completely inhibiting signs of anaphylactic response
- influence on bronchospasm caused by serotonine [6]: only a slight influence
- depressive effect on the central nervous system [7]: does not exert a depressive effect on the central nervous system
- LD50 ([8]; iv): 62 mg/kg
- LD50 ([8]; po): 370 mg/kg
- influence on bronchospasm caused by acetylcholine [9]: only a slight influence
- efficacy in bronchial asthma [10]: inefficient
- reduction of foot edema of hind limb, formalin [11]: more than 2 times
- hypotensive activity of histamine [12]: prevents hypotensive activity
- ophthalmic response (hyperemia and chemosis) ([13]; into the stomach, 50 mg/kg, 2% solution of histamine): prevents or substantially reduces ophthalmic response
- absolute lethal dose [14]: 500 mg/kg
- efficacy in allergic diseases ([15]; acute and chronic urticaria, hay fever, vasomotor rhinitis, Quincke's oedema, itching dermatosis, chronic eczema, polysyndromic phenomena of intolerance): highly efficient
- efficacy in patients with developed adaptation to other anti-histamine medicines ([15]; human, in vivo): efficient
- time to better condition of patients (dermal eruptions and itching reduced) ([15]; per os, 3 to 6 tablets (0.025 g each) per day): 3 days
- curing action in allergic ophthalmic diseases ([16]; per os, one tablet of 0.025 g 3 to 4 times per day): satisfactory curing action
- therapeutic effect with corticosteroids ([16]; simultaneous administration of corticosteroids (dexamethazone)): therapeutic effect was enhanced
- protection from intoxication (dispnea, apnoea, clono-tonic spasm) [17]: completely protects the animals
- bronchoconstricting action of histamine [18]: weakens, or inhibits the bronchoconstricting action of histamine
- tolerability ([19]; human, in vivo): well tolerated
- "seductive" effect ([19]; patients over 60 years of age or weakened by accompanying serious diseases): some cases
- discomfort ([19]; patients with accompanying serious diseases of the digestive tract): short-time phenomena of discomfort are possible
- time to disappearance of discomfort ([19]; patients with accompanying serious diseases of the digestive tract, without cancelling or reducing dosage): 1 to 2 days
- embriotoxic or teratogenic effects [20]: does not exert any embriotoxic or teratogenic effects
- influence on heart-vascular system, digestive tract, and excretory organs [21]: only a relatively slight influence
- reduction of foot edema of hind limb, dextrane [22]: more than 2 times
- anti-inflammation effect [23]: pronounced anti-inflammationeffect
- anti-inflammation effect relative to dimedrol [23]: superior over dimedrol
- reduction of foot edema of hind limb, serotonin ([24]; 25 mg/kg intraperitoneally and 50 mg/kg in the stomach, serotonin 5 mcg, P over 0.05): more than 2 times
- anti-edemic efficiency relative to dimedrol and diprasine ([24]; rat foot edema (serotonin, formalin, dextrane)): more efficient than dimedrol, and more active than diprasine (promethasine)

Structure (SMILES): CN(C)CCOC(c1ccccc1)c1ccccc1 [dimedrol, diphenhydramine hydrochloride, reference compound]
- effect on ophthalmic response ([13]; similar experiments, compared with the medicated compound): much less pronounced

Structure (SMILES): CC(CN1c2ccccc2Sc2ccccc21)N(C)C (centres unmarked) [diprasine (promethasine), promethasine]
- dose resulting in the death of half of the animals [25]: 25 mg/kg
